Results as given in patent US10344330B2, “Glatiramer acetate response biomarker mRNA potency assay” (Mylan Inc., priority 2013, dated 2019).

Assays:
[1] = tested on: IFN-γ secreted by LN cells; assay: IFN-γ secretion by GA-stimulated LN cells, MSD ELISA, 21 and 45 hr (Example II); assay type: cell-based, mouse
[2] = tested on: TNF-α secreted by LN cells; assay: TNF-α secretion by GA-stimulated LN cells, MSD 9-plex ELISA (Example II); assay type: cell-based, mouse; details: for TNF-α secretion response ratio (treated cell medium to control DCCM1 medium): 21 hr
Description: Animals at 8 weeks of age were immunized by injection into four footpads using a 1 mL syringe with a 27-G, 1⁄2-inch needle. […] Ten days post-immunization, immunized animals were sacrificed via cervical dislocation. […] The LN cells were isolated by pressing the LN with the plunger end of a sterile syringe. […] Trypan blue exclusion method was used to determine the cell density of viable cells in the suspension. […] Cat. […] LN cells were plated into a 24-well tissue culture plate for drug stimulation. […] Cell debris was removed by centrifugation at ca. 200×g for 10 minutes at 4° C. Cytokines secreted by treated cells were determined on the day of collection by ELISA using mouse TH 1/TH 2 9-Plex Tissue Culture Kit (Meso Scale Discovery; Cat No. […]-2, Lot #: K0032839) which detects Th1 cytokines (IFN-γ, IL-2, IL-12, IL-1β, TNF-α, CXCL1) and Th2 cytokines (IL-4, IL-5 and IL-10). For IFN-γ, culture media also were assayed at 45 hours using mouse IFN-γ Tissue Culture Kit (Meso Scale Discovery; Cat No. […] For the positive control, 0.5 mL of LN cells (5×10^6 cells/well) were treated with 0.5 mL of ConA (5 μg/mL). For the negative control, 0.5 mL of LN cells (5×10^6 cells/well) were treated with 0.5 mL of MBP (20 μg/mL). The LN cells with mock stimulation (enriched DCCM1 medium) were used to monitor the background level of a cytokine. For the cytokine assays, calibration standards or samples were incubated in the MULTI-SPOT or the SINGLE-SPOT plate and each cytokine bound to its corresponding capture antibody. All test samples were run in duplicate. The amount of each cytokine on its distinct spot was quantified using a cytokine-specific detection antibody labeled with MSD SULFO-TAGTM reagent. Electrochemiluminescent signals from immobilized SULFO-TAGTM-labeled complexes on each spot from each well were captured by the MSD SECTOR Imager 6000, which produces a signal directly proportional to the amount of captured cytokine in a test sample. The levels of cytokines in test samples were derived by interpolation from calibration curves with calibration standards of known concentrations using reagents provided with the MSD kits. Kits were used according to the manufacturer's protocols. […] Data are expressed as a response ratio of cytokine concentration in treated cell medium to control DCCM1 medium.

[3] = tested on: mouse IL-2 mRNA in primary LN cells; assay: Validation: mouse IL-2 mRNA by real-time PCR in LN cells of GA-immunized SJL/J mice, three experiments (Example IV); assay type: cell-based; details: for IL-2 mRNA Fold Change: 2.5 μg/mL, normalized to GAPDH; for induction of IL-2 mRNA: 20 μg/mL GA, 6 hours
Description: Three experiments were conducted using one batch of GA (Mylan GMA). The primary LN cells were stimulated by incubation with 6 concentrations (0.3 to 20 μg/mL) of the GA for 6 hours at 37° C. Total RNA was isolated from LN cells stimulated with GA or controls. cDNA was synthesized from the RNA and the mRNA levels of seven mouse cytokines, IL-2, IL-4, IL-5, IL-10, IL-13, interferon (IFN)-γ and tumor necrosis factor (TNF)-α, were quantitatively measured by a real-time PCR method.
Female SJL/J mice at 8-9 weeks of age were immunized by injection into four footpads using a 1 mL syringe with a 27-G, ½-inch needle. Each mouse received a total injection volume of 0.1 mL of GMA emulsified in CFA (about 10 μL into each of the front footpads and 40 μL into each of the hind footpads). Animals were immunized on Day 0. After injection, animals were placed back in their cages and housed ≤6 animals per cage.
Immunized animals were sacrificed by cervical dislocation on Day 10 following immunization. […] After centrifugation at about 200×g for 10 minutes at 4° C., the cell pellet was re-suspended in 40 mL of DCCM-1 medium for cell counting. A Trypan blue exclusion method was used to determine the cell density of viable cells in the suspension. After cell counting, the LN cells were suspended in enriched DCCM-1 medium at density of 7.5×10^6 cells/mL. LN cells (0.12 mL) were plated into each well of 96-well tissue culture plates.
Dilutions of GA (Mylan GMA) were prepared using enriched DCCM-1 medium as the diluent. GA dilutions (0.12 mL) were added in the assigned wells of 96-well tissue culture plates. The same volume of LN cells (0.12 mL) isolated from immunized animals was added to the assigned wells. A positive control and a negative control were always performed in the same assay by treating LN cells with 2.5 μg/mL ConA and 10 μg/mL MBP, respectively. The LN cells with mock stimulation protocols (enriched DCCM-1 medium) were used to monitor the background mRNA level of a cytokine. The plates were incubated at 37° C. in a humidified 5% CO2 incubator for 6 hr.
At the end of incubation time, culture medium from stimulated cells was removed by aspiration and the cells were lysed using Qiagen or Promega lysis buffer. The lysate was transferred to an RNeasy Mini column (Qiagen) or wells of the SV 96 Binding Plate (Promega) for RNA isolation and cDNA synthesis. All tested samples were run in triplicate.
The SV 96 Total RNA Isolation System (Promega; Cat. No. Z3505) was used for total RNA isolation. Assay procedures were carried out according to each manufacturer's protocol. RNA samples were stored at −70° C. until use. […] The assay procedure was carried out according to the manufacturer's protocol.
The plate was centrifuged at 2000 rpm for 2 minutes at 4° C. to spin down the contents and eliminate air bubbles. Samples were prepared and run in a 96-well plate using a Life Technologies Real-Time PCR system (previously Applied Biosystems; Model No. 7500) according to the manufacturer's recommendation. The mix for the reference gene was prepared in the same way using the reference gene primer.
A relative quantitation method was used to analyze changes in mIL-2, mIL-4, mIL-5, mIL-10, mIL-13, mIFN-γ and TNF-α expression in GA treated samples relative to the untreated control (Enriched DCCM-1 treated) samples using the following program:
Levels of mouse cytokine amplicons were normalized to an internal probe level (GAPDH) from the same samples. The following equations were used to calculate the relative increase in response to GA stimulation compared to the control sample (Enriched DCCM1 sample): […]

Concanavalin A [ConA, reference compound]
IFN-γ secretion response ratio (treated cell medium to control DCCM1 medium) ([1]; BALB/cByJ, immunized GA Intraplantar, 21 hr): 9.70
IFN-γ secretion response ratio (treated cell medium to control DCCM1 medium) ([1]; BALB/cByJ, immunized GA Intraplantar, 45 hr): 11.40
IFN-γ secretion response ratio (treated cell medium to control DCCM1 medium) ([1]; BALB/cByJ, immunized GA Lower Limb, 21 hr): 6.24
IFN-γ secretion response ratio (treated cell medium to control DCCM1 medium) ([1]; BALB/cByJ, immunized GA Lower Limb, 45 hr): 7.33
IFN-γ secretion response ratio (treated cell medium to control DCCM1 medium) ([1]; BALB/cByJ, immunized Mannitol Intraplantar, 21 hr): 4.40
IFN-γ secretion response ratio (treated cell medium to control DCCM1 medium) ([1]; BALB/cByJ, immunized Mannitol Intraplantar, 45 hr): 3.48
IFN-γ secretion response ratio (treated cell medium to control DCCM1 medium) ([1]; C57BL10J, immunized GA Intraplantar, 21 hr): 11.55
IFN-γ secretion response ratio (treated cell medium to control DCCM1 medium) ([1]; C57BL10J, immunized GA Intraplantar, 45 hr): 53.10
IFN-γ secretion response ratio (treated cell medium to control DCCM1 medium) ([1]; C57BL10J, immunized GA Lower Limb, 21 hr): 5.07
IFN-γ secretion response ratio (treated cell medium to control DCCM1 medium) ([1]; C57BL10J, immunized GA Lower Limb, 45 hr): 5.15
IFN-γ secretion response ratio (treated cell medium to control DCCM1 medium) ([1]; C57BL10J, immunized Mannitol Intraplantar, 21 hr): 4.05
IFN-γ secretion response ratio (treated cell medium to control DCCM1 medium) ([1]; C57BL10J, immunized Mannitol Intraplantar, 45 hr): 5.90
IFN-γ secretion response ratio (treated cell medium to control DCCM1 medium) ([1]; CD-1, immunized GA Intraplantar, 21 hr): 10.14
IFN-γ secretion response ratio (treated cell medium to control DCCM1 medium) ([1]; CD-1, immunized GA Intraplantar, 45 hr): 5.47
IFN-γ secretion response ratio (treated cell medium to control DCCM1 medium) ([1]; CD-1, immunized GA Lower Limb, 21 hr): 1.90
IFN-γ secretion response ratio (treated cell medium to control DCCM1 medium) ([1]; CD-1, immunized GA Lower Limb, 45 hr): 1.89
IFN-γ secretion response ratio (treated cell medium to control DCCM1 medium) ([1]; CD-1, immunized Mannitol Intraplantar, 21 hr): 9.35
IFN-γ secretion response ratio (treated cell medium to control DCCM1 medium) ([1]; CD-1, immunized Mannitol Intraplantar, 45 hr): 9.68
TNF-α secretion response ratio (treated cell medium to control DCCM1 medium) ([2]; BALB/cByJ, immunized GA Intraplantar): 27.69
TNF-α secretion response ratio (treated cell medium to control DCCM1 medium) ([2]; BALB/cByJ, immunized GA Lower Limb): 10.87
TNF-α secretion response ratio (treated cell medium to control DCCM1 medium) ([2]; BALB/cByJ, immunized Mannitol Intraplantar): 11.61
TNF-α secretion response ratio (treated cell medium to control DCCM1 medium) ([2]; C57BL10J, immunized GA Intraplantar): 2.53
TNF-α secretion response ratio (treated cell medium to control DCCM1 medium) ([2]; C57BL10J, immunized GA Lower Limb): 2.02
TNF-α secretion response ratio (treated cell medium to control DCCM1 medium) ([2]; C57BL10J, immunized Mannitol Intraplantar): 2.10
TNF-α secretion response ratio (treated cell medium to control DCCM1 medium) ([2]; CD-1, immunized GA Intraplantar): 17.59
TNF-α secretion response ratio (treated cell medium to control DCCM1 medium) ([2]; CD-1, immunized GA Lower Limb): 9.79
TNF-α secretion response ratio (treated cell medium to control DCCM1 medium) ([2]; CD-1, immunized Mannitol Intraplantar): 23.88
IL-2 mRNA Fold Change ([3]; Experiment 1): 147.1 fold
IL-2 mRNA Fold Change ([3]; Experiment 2): 72.0 fold
IL-2 mRNA Fold Change ([3]; Experiment 3): 188.6 fold

L-glutamic acid polymer with L-alanine, L-lysine and L-tyrosine, acetate (salt) [GA]
IFN-γ secretion, dose response to GA (in words) ([1]; LN cells from each of the three mouse strains): dose-dependent manner
TNF-α secretion, dose response to GA (in words) ([2]; cells from any of the three mouse strains): No dose response
induction of IL-2 mRNA ([3]; SJL/J, Exp 1): 31.7 fold
induction of IL-2 mRNA ([3]; SJL/J, Exp 2): 27.8 fold
induction of IL-2 mRNA ([3]; SJL/J, Exp 3): 42.0 fold
induction of IL-2 mRNA (in words) ([3]; SJL/J, different concentrations of GA vs unstimulated LN cells): robust induction
